In patent US9895349B2, “N-phenyl-carboxamide derivatives and the use thereof as medicaments for the treatment of hepatitis B” (priority 2013, dated 2018) one finds CC50 and EC50 data, which are given here for 28 compounds.

Bounds are passed on as bounds.

Usually CC50 stands for the concentration that lowers cell viability or growth by half. A lower CC50 goes with greater toxicity to the cells. For orientation: EC50 means the concentration that produces a half-maximal response. A low value points to greater potency.

Data set [1] can be described thus: Cytotoxicity in HepG2 cells, Resazurin assay. The conditions noted are these: human. On the technique in general: Resazurin is reduced to fluorescent resorufin, in cell work by metabolically active cells.
The test system of data set [2] is HBV. As to the kind of experiment: Anti-HBV activity, HepG2.117 inducibly HBV producing cell line (Tet-off), intracellular HBV DNA by realtime PCR. The conditions noted are these: HepG2.117 cells, 3 days of treatment. The data set is classed as cell-based, Hepatitis B virus (HBV).
For data set [3], the system named is HBV. The experiment in a line: Anti-HBV activity, HepG2.2.15 stable transfected cell line, HBV DNA from secreted virions by realtime PCR. The data set is classed as cell-based, Hepatitis B virus (HBV). The following applies: HepG2.2.15 cells, 6 days of treatment.
The mark [4] stands for this setting: Hepatitis B virus, HepG2.117, 72 h.
[5] abbreviates: Hepatitis B virus, HepG2.2.15, 144 h.

`Cc1cc(NC(=O)[C@H]2CCN(S(=O)(=O)N[C@H](C)CO)C2)ccc1F` [Compound 39, (3S)—N-(4-fluoro-3-methyl-phenyl)-1-[[(1R)-2-hydroxy-1-methyl-ethyl]sulfamoyl]pyrrolidine-3-carboxamide] showed a CC50 at 4 days in data set [1] of more than 25000 nM. Further, the EC50 in the data set on HBV [2] (setting [4]) was 150 nM.

Take `Cc1cc(NC(=O)[C@H]2CCN(S(=O)(=O)N3CC4(COC4)C3)C2)ccc1F` [Compound 49, (3S)—N-(4-fluoro-3-methyl-phenyl)-1-(6-oxa-2-azaspiro[3.3]heptan-2-ylsulfonyl)pyrrolidine-3-carboxamide]: in data set [1], the CC50 at 4 days is more than 25000 nM. Moreover, the half-maximal effective concentration (EC50) was determined as 1490 nM in the data set on HBV [3] (setting [5]) and 950 nM in the data set on HBV [2] (setting [4]).

In the case of `Cc1cc(NC(=O)C2(F)CCN(S(=O)(=O)N[C@H]3CCOC3)C2)ccc1F` (single isomer, unassigned) [Compound 42a], in data set [1], the CC50 at 4 days is more than 25000 nM. The EC50 in the data set with HBV [3] (setting [5]) and in the data set with HBV [2] was more than 5000 nM throughout.

For `Cc1cc(NC(=O)[C@@]23C[C@@H]2CN(S(=O)(=O)CC(C)C)C3)ccc1F` [Compound 27, (1S,5S)—N-(4-fluoro-3-methyl-phenyl)-3-isobutylsulfonyl-3-azabicyclo[3.1.0]hexane-1-carboxamide], in data set [1], the CC50 at 4 days is more than 25000 nM. Also, the EC50 in the data set with HBV [3] (setting [5]) was found to be 2800 nM; in the data set on HBV [2] (setting [4]), 2000 nM.

Compound `Cc1cc(NC(=O)[C@H]2CCN(S(=O)(=O)NCC(C)C)C2)ccc1F` [Compound 31, (3S)—N-(4-fluoro-3-methyl-phenyl)-1-(isobutylsulfamoyl)pyrrolidine-3-carboxamide] gave a CC50 at 4 days in data set [1] of more than 25000 nM. Further, the EC50 in the data set on HBV [3] (setting [5]) was determined as 450 nM; with HBV [2] (setting [4]) it was 470 nM.

`CCC1CC1S(=O)(=O)N1CC[C@H](C(=O)Nc2ccc(F)c(C)c2)C1` (stereo partly drawn) [Compound 24, (3S)-1-(2-ethylcyclopropyl)sulfonyl-N-(4-fluoro-3-methyl-phenyl)pyrrolidine-3-carboxamide] registered a CC50 at 4 days in data set [1] of more than 25000 nM. Besides, the figures for the EC50 with HBV [3] (setting [5]) and with HBV [2] (setting [4]) were 500 nM and 330 nM, respectively.

`Cc1cc(NC(=O)[C@H]2CCN(S(=O)(=O)NC(C)C)C2)ccc1F` [Compound 32, (3S)—N-(4-fluoro-3-methyl-phenyl)-1-(isopropylsulfamoyl)pyrrolidine-3-carboxamide] showed a CC50 at 4 days in data set [1] of more than 25000 nM. Moreover, the EC50 in the data set with HBV [3] (setting [5]) turned out to be 180 nM; in the data set with HBV [2] (setting [4]) it was 120 nM.

As to `Cc1cc(NC(=O)[C@H]2CCN(S(=O)(=O)NC3CCN(C)C3=O)C2)ccc1F` (stereo partly drawn) [Compound 48, (3S)—N-(4-fluoro-3-methyl-phenyl)-1-[(1-methyl-2-oxo-pyrrolidin-3-yl)sulfamoyl]pyrrolidine-3-carboxamide], the CC50 at 4 days in data set [1] was more than 25000 nM. In addition, the EC50 in the data set with HBV [3] (setting [5]) came out at 1370 nM; with HBV [2] (setting [4]) it was 570 nM.

`O=C(Nc1ccc(F)c(F)c1)[C@H]1CCN(S(=O)(=O)N[C@H]2CCOC2)C1` [Compound 46, (3S)—N-(3,4-difluorophenyl)-1-[[(3S)-tetrahydrofuran-3-yl]sulfamoyl]pyrrolidine-3-carboxamide] came in with a CC50 at 4 days in data set [1] of more than 25000 nM. In addition, the EC50 in the data set on HBV [3] (setting [5]) came to 600 nM; in the data set with HBV [2] (setting [4]) it was 240 nM.

Consider `Cc1cc(NC(=O)[C@@H]2CN(S(=O)(=O)NC(C)C)C[C@H]2C)ccc1F` (relative stereo) [Compound 41, trans-N-(4-fluoro-3-methyl-phenyl)-1-(isopropylsulfamoyl)-4-methyl-pyrrolidine-3-carboxamide], for which, in data set [1], the CC50 at 4 days is more than 25000 nM. Also, the results for the EC50 with HBV [3] (setting [5]) and in the data set on HBV [2] (setting [4]) were 530 nM and 420 nM, respectively.

Compound `Cc1cc(NC(=O)C2(F)CCN(S(=O)(=O)NC(C)C)C2)ccc1F` (racemic) [Compound 35a, 3-fluoro-N-(4-fluoro-3-methyl-phenyl)-1-(isopropylsulfamoyl)pyrrolidine-3-carboxamide] registered a CC50 at 4 days in data set [1] of more than 25000 nM. Also, the EC50 in the data set on HBV [3] is 563 nM; in the data set with HBV [2], 228 nM.

In data set [1], `Cc1cc(NC(=O)C2CCN(S(=O)(=O)CC(C)C)C2)ccc1F` (centres unmarked) [Compound 1, N-(4-fluoro-3-methyl-phenyl)-1-isobutylsulfonyl-pyrrolidine-3-carboxamide] gave a CC50 at 4 days of more than 25000 nM. Also, the EC50 in the data set on HBV [3] (setting [5]) stood at 940 nM; with HBV [2] (setting [4]), 720 nM.

In data set [1], `Cc1cc(NC(=O)C2CN(S(=O)(=O)CC(C)C)c3ccccc32)ccc1F` (centres unmarked) [Compound 28, N-(4-fluoro-3-methyl-phenyl)-1-isobutylsulfonyl-indoline-3-carboxamide] had a CC50 at 4 days of more than 25000 nM. Further, the EC50 in the data set with HBV [3] (setting [5]) amounted to 2000 nM; with HBV [2] (setting [4]), 3900 nM.

For the compound `CCCS(=O)(=O)N1CC[C@H](C(=O)Nc2ccc(F)c(C)c2)C1` [Compound 6, (3S)—N-(4-fluoro-3-methyl-phenyl)-1-propylsulfonyl-pyrrolidine-3-carboxamide], the CC50 at 4 days in data set [1] was more than 25000 nM. Moreover, the half-maximal effective concentration (EC50) worked out at 1900 nM in the data set with HBV [3] (setting [5]) and 620 nM in the data set on HBV [2] (setting [4]).

As for `Cc1cc(NC(=O)[C@H]2CCN(C(=O)OCC(C)C)C2)ccc1F` [Compound 26, isobutyl (3S)-3-[(4-fluoro-3-methyl-phenyl)carbamoyl]pyrrolidine-1-carboxylate], the CC50 at 4 days in data set [1] is more than 25000 nM. The EC50 was 4400 nM with HBV [3] (setting [5]) and 410 nM with HBV [2] (setting [4]).

Consider `Cc1cc(NC(=O)[C@H]2CCN(S(=O)(=O)CC(C)C)C2)ccc1F` [Compound 2, (3S)—N-(4-fluoro-3-methyl-phenyl)-1-isobutylsulfonyl-pyrrolidine-3-carboxamide], for which the CC50 at 4 days in data set [1] is more than 25000 nM. Moreover, the EC50 in the data set on HBV [3] (setting [5]) was determined as 1320 nM; in the data set with HBV [2] (setting [4]) it was 310 nM.

The compound `Cc1cc(NC(=O)[C@H]2CCN(S(=O)(=O)NC(C)CC#N)C2)ccc1F` (stereo partly drawn) [Compound 40, (3S)-1-[(2-cyano-1-methyl-ethyl)sulfamoyl]-N-(4-fluoro-3-methyl-phenyl)pyrrolidine-3-carboxamide] gave a CC50 at 4 days in data set [1] of more than 25000 nM. The EC50 with HBV [3] (setting [5]) stood at 290 nM; with HBV [2] (setting [4]) it was 120 nM.

For the compound `Cc1cc(NC(=O)[C@H]2CCN(S(=O)(=O)NC3CC(=O)N(C)C3)C2)ccc1F` (stereo partly drawn) [Compound 50, (3S)—N-(4-fluoro-3-methyl-phenyl)-1-[(1-methyl-5-oxo-pyrrolidin-3-yl)sulfamoyl]pyrrolidine-3-carboxamide], in data set [1], the CC50 at 4 days was more than 25000 nM. Also, the results for the EC50 in the data set with HBV [3] (setting [5]) and with HBV [2] (setting [4]) were 350 nM and 460 nM, respectively.

In turn, `Cc1cc(NC(=O)C2CN(S(=O)(=O)NC(C)C)C3CC23)ccc1F` (single isomer, unassigned) [Compound 36a, N-(4-fluoro-3-methyl-phenyl)-2-(isopropylsulfamoyl)-2-azabicyclo[3.1.0]hexane-4-carboxamide] came in with a CC50 at 4 days in data set [1] of more than 25000 nM. Also, the concentration giving a half-maximal response (EC50) came to 2390 nM in the data set with HBV [3] and 2650 nM with HBV [2].

Compound `Cc1cc(NC(=O)[C@H]2CCN(S(=O)(=O)N[C@H]3CCOC3)C2)ccc1F` [Compound 33, (3S)—N-(4-fluoro-3-methyl-phenyl)-1-[[(3S)-tetrahydrofuran-3-yl]sulfamoyl]pyrrolidine-3-carboxamide] came in with a CC50 at 4 days in data set [1] of more than 25000 nM. The EC50 with HBV [3] (setting [5]) amounted to 150 nM; in the data set with HBV [2] (setting [4]), 75 nM.

With `CC1(NS(=O)(=O)N2CC[C@H](C(=O)Nc3ccc(F)c(F)c3)C2)COC1` [Compound 44, (3S)—N-(3,4-difluorophenyl)-1-[(3-methyloxetan-3-yl)sulfamoyl]pyrrolidine-3-carboxamide], in data set [1], the CC50 at 4 days was more than 25000 nM. In addition, the EC50 was found to be 610 nM in the data set on HBV [3] (setting [5]) and 420 nM in the data set with HBV [2] (setting [4]).

`Cc1cc(NC(=O)C23CC2CN(S(=O)(=O)N[C@H]2CCOC2)C3)ccc1F` (stereo partly drawn) [Compound 43, N-(4-fluoro-3-methyl-phenyl)-3-[[(3S)-tetrahydrofuran-3-yl]sulfamoyl]-3-azabicyclo[3.1.0]hexane-1-carboxamide]: the 50% cytotoxic concentration (CC50) at 4 days in data set [1] was more than 25000 nM. The EC50 in the data set on HBV [3] (setting [5]) was 580 nM; with HBV [2] (setting [4]) it was 850 nM.

As to `Cc1cc(NC(=O)[C@H]2CCN(S(=O)(=O)C3CCCC3)C2)ccc1F` [Compound 10, (3S)-1-cyclopentylsulfonyl-N-(4-fluoro-3-methyl-phenyl)pyrrolidine-3-carboxamide], the CC50 at 4 days in data set [1] was 22900 nM. Further, the EC50 in the data set with HBV [3] (setting [5]) was determined as 4300 nM; with HBV [2] (setting [4]) it was 760 nM.

Take `Cc1cc(NC(=O)[C@@H]2CCN(S(=O)(=O)CC(C)C)C2)ccc1F` [Compound 3, (3R)—N-(4-fluoro-3-methyl-phenyl)-1-isobutylsulfonyl-pyrrolidine-3-carboxamide]: the CC50 at 4 days in data set [1] is more than 25000 nM. The values for the EC50 in the data set with HBV [3] (setting [5]) and in the data set on HBV [2] (setting [4]) were more than 25000 nM and 1490 nM, respectively.

With `CC[C@@H](C)NS(=O)(=O)N1CC[C@H](C(=O)Nc2ccc(F)c(F)c2)C1` [Compound 45, (3S)—N-(3,4-difluorophenyl)-1-[[(1R)-1-methylpropyl]sulfamoyl]pyrrolidine-3-carboxamide], the CC50 at 4 days in data set [1] is more than 25000 nM. Also, the EC50 in the data set with HBV [3] (setting [5]) is 3250 nM; in the data set with HBV [2] (setting [4]) it was 540 nM.

`Cc1cc(NC(=O)[C@H]2CCN(S(=O)(=O)C3CCOCC3)C2)ccc1F` [Compound 9, (3S)—N-(4-fluoro-3-methyl-phenyl)-1-tetrahydropyran-4-ylsulfonyl-pyrrolidine-3-carboxamide] had a CC50 at 4 days in data set [1] of more than 25000 nM. The EC50 in the data set on HBV [3] (setting [5]) was determined as 1400 nM; in the data set with HBV [2] (setting [4]) it was 950 nM.

Compound `Cc1cc(NC(=O)C2(C)CCN(S(=O)(=O)CC(C)C)C2)ccc1F` (racemic) [Compound 29, N-(4-fluoro-3-methyl-phenyl)-1-isobutylsulfonyl-3-methyl-pyrrolidine-3-carboxamide] showed a CC50 at 4 days in data set [1] of more than 25000 nM. In addition, the values for the EC50 in the data set with HBV [3] (setting [5]) and with HBV [2] were 13700 nM and 18900 nM, respectively.

On to `Cc1cc(NC(=O)[C@H]2CCN(S(=O)(=O)CC3CC3)C2)ccc1F` [Compound 8, (3S)-1-(cyclopropylmethylsulfonyl)-N-(4-fluoro-3-methyl-phenyl)pyrrolidine-3-carboxamide], for which, in data set [1], the CC50 at 4 days was more than 25000 nM. The 50% effective concentration (EC50) was found to be 580 nM with HBV [3] (setting [5]) and 330 nM in the data set on HBV [2] (setting [4]).
